# Experimental data taken from patent US5804571A (U.S. Bioscience, priority 1995, dated 1998).
# Legend:
# [1] = system: murine hematopoietic system; test: exogenous spleen colony (CFU-S) assay, toxicity to the murine hematopoietic system; type: in vivo; conditions: CFU-S assay 20 hrs after drug administration, mice
# Protocol: To evaluate toxicity to the murine hematopoietic system, an exogenous spleen colony (CFU-S) assay was used. A suitable number of murine […] are injected (intravenously) into lethally irradiated syngeneic mice (Ref. Hodgson, G. S., and Bradley, T. R., Properties of Haematopoietic Stem Cells Surviving 5-FU Treatment: Evidence for a pre-CFU-S Cell48, Nature 281:381, 1979).
# Colonies are found in the spleen of the recipients on Day 9 or 10; there is a linear relationship between the number of cells injected and the number of spleen colonies. The spleen colonies originate from a single cell, and contain cells of the erythroid, granulocytic and megakaryocytic series.
# At 20 hours after drug administration, each mouse was sacrificed and bone marrow was extracted from the femurs into McCoy's 5A medium (GIBCOm Grand Island, N.Y.) on ice. Nucleated marrow cells were quantitated, and 5×10^4 cells were injected intravenously into syngeneic recipient mice one hour after they received 800 rads whole body radiation. Nine days later, the recipient animals were sacrificed, and the spleens were removed and fixed in Boulin's solution. Surface colonies were then counted.
# [2] = AZT recipients, cited from earlier work
# [3] = system: human immunodeficiency virus (HIV); conditions: cited from earlier work
# [4] = placebo 4 percent (P less than 0.001)
SMILES,"CFU-S Survival (% of Control) ([1]; AZT alone, 400 mg/kg ip) [%]","neutropenia (less than 500 cells per cubic millimeter), share of recipients ([2]; placebo 2 percent (P less than 0.001)) [%]","anemia with hemoglobin levels below 7.5 per deciliter, share of recipients [2, 4] [%]","required multiple red-cell transfusions, share of recipients [2, 4] [%]",clinical benefits with AIDS ([3]; AIDS patients),"serious adverse reactions ([3]; human, in vivo)","CFU-S Survival (% of Control) ([1]; phosphorothioate 900 mg/kg po, followed in 30 minutes with AZT 400 mg/kg ip) [%]"
"Cc1cn([C@H]2C[C@H](N=[N+]=[N-])[C@@H](CO)O2)c(=O)[nH]c1=O [AZT, 3'-azido-3'-deoxythymidinc]",18,16,24,21,clinical benefits with AIDS have been reported,"serious adverse reactions, particularly bone marrow suppression were observed",
CNCCCNCCCSP(=O)(O)O [S-3-(3-methylaminopropylamino)propyl dihydrogen phosphorothioate],,,,,,,68
